Results on three molecules are retold here after publication PMC8329280 (Scientific Reports, 2021).

The target of data set [1] is Endoprotease Glu-C from S. aureus V8 (E.C. 3.4.21.19) (Staphylococcus aureus, UniProt P0C1U8). To be noted: 50 mM Tris–HCl pH 8.2, 37 °C, enzyme added for 4 h then same amount for 18 h; RP-HPLC, optical density at 214 nm. As to the method:
Endoprotease Glu-C from S. aureus V8 (E.C. 3.4.21.19) was provided from Sigma Aldrich (Saint Louis, USA). Digestion of DOPA5T-Ctl (12.5 µg) by endoprotease Glu-C (Sigma-Aldrich Chemie Saint Quentin Fallavier, France) (3.5 µg) was obtained for 18 h at 37 °C in 50 mM Tris–HCl pH 8.2 or PBS[28]. Enzyme (1.75 µg) was added for a digestion of 4 h and then the same amount was added for 18 h. The enzymatic digestion was stopped by addition of 25 µL of 0.1% (vol/vol) TFA in milliQ water. The fragments resulting from enzymatic digestion were isolated with a RP-HPLC with a Dionex HPLC system on a Vydac 208 TP C8 column (3 × 250 mm), and identified by Maldi-tof mass spectrometry, as previously reported for the characterization of the synthetic peptides.

Data set [2] has as its system methicillin sensitive S. aureus (MSSA, strain 49775). It is filed as cell-based, Staphylococcus aureus. As to the method: (§1) Antibacterial assays were realized to the method previously reported[22],[25]. S. aureus strains were pre-cultured for 20 h in aerobic conditions at 37 °C in Mueller–Hinton Broth (MHB) medium (Becton–Dickinson Microbiology Company, Sparks, USA) (pH 7.4). Bacteria were suspended at absorbance of 0.001 at 620 nm in the MHB medium. Antibacterial activity was tested for 24 h incubation at 37 °C with shaking by measuring the inhibition of bacterial growth. Ten µl of final volumes (10–200 µg/mL) of synthetic peptides were incubated in microtitration plates with 90 µl of a mid-logarithmic phase culture of bacteria, with a starting absorbance of 0.001 at 620 nm. A mixture of Tetracycline (10 mg/L) and Cefotaxime (0.1 mg/L) were used as positive controls. Microbial growth was assessed by the increase of absorbance after 24 h incubation at 37 °C. The A620 nm value of control cultures growing in the absence of peptide and antibiotics was defined as 100% growth. A620 nm value with the antibiotics (Tetracycline and Cefotaxime) was taken as 100% inhibition. Absence of bacterial growth was verified by agar plate spreading. Each assay was performed in triplicates. Data were shown as mean + /− standard deviation of three independent experiments; p < 0.05.

Another data set has as its system S. aureus 25923 (MSSA). It is filed as cell-based, Staphylococcus aureus. To be noted: 25923, 24 h. As to the method: as §1
The subject of another data set is S. aureus V8. It is filed as cell-based, Staphylococcus aureus. Particulars: V8, 24 h. As to the method:
as §1

Another data set has as its system Enterobacter aerogenes. It is filed as cell-based. As to the method: (§2) The L- and D- forms of Ctl and also the corresponding L- and D-forms of the scramble peptides were tested by Atlangram (Nantes, France) against resistant Gram-negative bacteria (Escherichia coli, Klebsiella pneumoniae, Enterobacter cloacae, Enterobacter aerogenes, Serratia marcescens, Morganella morganii, Pseudomonas aeruginosa), MSSA, MRSA and yeast (C. albicans). The MICs were determined according to the CASFM/EUCAST 2018 (Comité de l’Antibiogramme de la Société Française de Microbiologie).

Another data set relates to Candida albicans. It is filed as cell-based. As to the method: as §2
Another data set has as its system Pseudomonas aeruginosa. It is filed as cell-based. As to the method:
as §2

Another data set has as its system Escherichia coli. It is filed as cell-based. As to the method:
as §2

Another data set relates to Enterobacter cloacae. It is filed as cell-based. As to the method: as §2
In another data set the test system is Serratia marcescens. It is filed as cell-based. As to the method: as §2
The next data set relates to Klebsiella pneumoniae. It is filed as cell-based. As to the method:
as §2

The subject of the next data set is Morganella morganii. It is filed as cell-based. As to the method: as §2
A further data set deals with MSSA. It is filed as cell-based, Staphylococcus aureus. As to the method:
as §2

For a further data set, the system named is MRSA. It is filed as cell-based, Staphylococcus aureus. As to the method: as §2
The next data set concerns Citrobacter freundii. It is filed as cell-based.
In data set [3] the test system is proteases produced by Staphylococcus aureus. Particulars: cited from earlier work. From the text:
In particular, CgA is an acidic glyco-phospho-protein stored in secretory vesicles of numerous nervous, neuroendocrine and immune cells. […] In a ...

Data set [4] has as its system human intestinal epithelial cell (caco-2). To be noted: cited from earlier work.
The test system of data set [5] is human gingival fibroblast (HGF-1). To be noted: cited from earlier work.

Non-standard residues stand in square brackets, D forms with d. Residues, ends and D or L forms follow the SMILES beside them. No end group written: not given here. Dopa = N[C@@H](Cc1ccc(O)c(O)c1)C(=O)O

Chain of Endoprotease Glu-C from S. aureus V8 (E.C. 3.4.21.19) (P0C1U8 69-336): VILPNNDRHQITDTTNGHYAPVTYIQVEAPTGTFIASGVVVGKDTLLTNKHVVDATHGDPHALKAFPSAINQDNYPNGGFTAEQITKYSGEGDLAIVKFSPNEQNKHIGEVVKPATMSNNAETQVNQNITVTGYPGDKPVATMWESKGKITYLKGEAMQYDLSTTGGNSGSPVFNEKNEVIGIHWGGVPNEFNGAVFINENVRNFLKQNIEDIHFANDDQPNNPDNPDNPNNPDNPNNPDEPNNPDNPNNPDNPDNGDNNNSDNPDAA

Turning to `CSCC[C@H](NC(=O)[C@H](CO)NC(=O)[C@H](CCCNC(=N)N)NC(=O)[C@H](CCC(=O)O)NC(=O)CNC(=O)CNC(=O)[C@H](CCCNC(=N)N)NC(=O)[C@H](CC(C)C)NC(=O)[C@@H](NC(=O)[C@H](Cc1ccc(O)c(O)c1)NC(=O)[C@H](CCCCN)NC(=O)[C@H](Cc1ccc(O)c(O)c1)NC(=O)[C@H](CCCCN)NC(=O)[C@@H](N)Cc1ccc(O)c(O)c1)[C@@H](C)O)C(=O)N[C@@H](CCCNC(=N)N)C(=O)N[C@@H](CC(C)C)C(=O)N[C@@H](CO)C(=O)N[C@@H](Cc1ccccc1)C(=O)N[C@@H](CCCNC(=N)N)C(=O)N[C@@H](C)C(=O)N[C@@H](CCCNC(=N)N)C(=O)NCC(=O)N[C@@H](Cc1ccc(O)cc1)C(=O)NCC(=O)N[C@@H](Cc1ccccc1)C(=O)N[C@@H](CCCNC(=N)N)C(=O)O` [DOPA5T-Ctl] (H-[Dopa]K[Dopa]K[Dopa]TLRGGERSMRLSFRARGYGFR-OH), in [1], the “Ctl and its oxidized form released after Glu-C digestion” value stood at 76%. Besides, in [1], the “proteolysis by Glu-C endoprotease” value is on record as “full proteolysis”. For the same molecule, the IC50 (usually the concentration that inhibits the measured activity by half) in data set [2] (methicillin sensitive (, strain 49775, 24 h)) is 45 µM; with S. aureus 25923 (MSSA) it was 20 µM; in the data set with S. aureus V8 it was 65 µM.
For the molecule “FMRLRYRSSAFGGRR [Control L, reference compound]”, the MIC (usually the lowest concentration that inhibits growth of the organism) in the data set with Enterobacter aerogenes was above 128 µg/mL; in the data set with Candida albicans, 512 µg/mL; with Pseudomonas aeruginosa, above 128 µg/mL; against Escherichia coli, above 128 µg/mL; against Enterobacter cloacae, above 128 µg/mL; in the data set on Serratia marcescens, above 128 µg/mL. The MIC against Klebsiella pneumoniae, against Morganella morganii, in the data set with MSSA, against MRSA and against Citrobacter freundii was above 128 µg/mL throughout.
For the molecule RSMRLSFRARGYGFR [Ctl, Cateslytin], the MIC with Candida albicans was 512 µg/mL; with Pseudomonas aeruginosa, above 128 µg/mL; in the data set on Enterobacter cloacae it was above 128 µg/mL; in the data set on Serratia marcescens, above 128 µg/mL; against Morganella morganii it was above 128 µg/mL; with MSSA it was above 128 µg/mL. This molecule gave an MIC in the data set with MRSA above 128 µg/mL. Besides, the “MIC MSSA” value in data set [2] (methicillin sensitive (, strain 49775, 20 h)) came to 93.0 µg/mL. In data set [3], the “degradation by the proteases produced by Staphylococcus aureus” value is “resistant to degradation”. Also, the “toxicity for caco-2” value in data set [4] is recorded as “not toxic”. Further, the “toxicity for HGF-1” value in data set [5] is recorded as “not toxic”.
